Assay results: PubChem BioAssay (NCI)
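48-hour exposure; five concentrations; linearly interpolated endpoints. The concentration for full growth arrest is given as TGI.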

What was measured:
Experiment in all cases: NCI-60 cell line screen, 48 h
CAKI-1 renal = tested on: CAKI-1 renal
UACC-62 melanoma = tested on: UACC-62 melanoma
CCRF-CEM leukemia = tested on: CCRF-CEM leukemia
PC-3 prostate = tested on: PC-3 prostate
SK-MEL-5 melanoma = tested on: SK-MEL-5 melanoma
U251 CNS = tested on: U251 CNS
K-562 leukemia = tested on: K-562 leukemia
SR leukemia = tested on: SR leukemia
UACC-257 melanoma = tested on: UACC-257 melanoma
NCI-H460 lung = tested on: NCI-H460 lung

Structure (SMILES)	TGI (CAKI-1 renal) [µM]	TGI (UACC-62 melanoma) [µM]	TGI (CCRF-CEM leukemia) [µM]	TGI (PC-3 prostate) [µM]	TGI (SK-MEL-5 melanoma) [µM]	TGI (U251 CNS) [µM]	TGI (K-562 leukemia) [µM]	TGI (SR leukemia) [µM]	TGI (UACC-257 melanoma) [µM]	TGI (NCI-H460 lung) [µM]
N#CC1=C(N)N(c2ccccc2)C(c2ccccc2)C1(C#N)C#N (stereo not given)	> 100	45.7	33.7	40.3	26.9	32.4	26.5	40.5	34.9	
Cn1c2ccccc2c(=NNc2cccc(C(=O)O)c2)c2ccccc21	73.3	39.8	25.6	23.6	28.9	28.7	13.8		58.6	22
CC(C)(Cl)C(Br)CCC(=CCCl)CBr (mixture of isomers)		5.41	> 21.1	7.22	11.9	5.59	> 20.1	3.92	6.81	5.71
CCOc1ccc(/C=C2/C(=O)N=C(NC(C)=O)N2C)cc1	> 100	> 100			> 100	> 100			> 100	> 100
COc1ccc(/C=C2\N=C(SC)NC2=O)cc1	> 100	> 100	> 100	> 100	> 100	> 100				
COc1ccc(C2COc3cc(O)c(O)cc3C2)cc1 (stereo not given)	52.9	46.3	16.1		72.4	77.8	34.2		181	213
Nc1ccn(C2OC(CO)C(O)C2O)c(=O)c1 (stereo not given)	> 625	> 625	> 625		> 625	> 625				> 625
Cn1c(COC(=O)Nc2ccccc2)c(COC(=O)Nc2ccccc2)c2ccc3cc(Cl)c(Cl)cc3c21	3.09	40.7	> 75	20.4	16.1	5.01	> 75		21.6	22.9
CC1=NNC(=O)C1C(CC(=O)c1c[nH]c2ccccc12)C(=O)O (stereo not given)	> 100	> 100	> 100	> 100	> 100	> 100	> 100		> 100	> 100
O=c1c(C(c2ccc(Cl)cc2)c2c(O)c3ccccc3n(-c3ccccc3)c2=O)c(O)c2ccccc2n1-c1ccccc1	> 100	> 100	> 100		> 100	> 100	> 100	> 100		
O=C1C(=Cc2ccccc2O)N=C(c2ccccc2)N1n1c(-c2ccccc2)nc2ccccc2c1=O	84.8	> 100	88.6	> 100	41.7		78.2	> 100	69.1	> 100
CCC/C(Cl)=N\OC(=O)Nc1ccc(OC(F)(F)F)cc1	3.05	48.7	> 26.7	32.8	21.7	> 58.1	> 20.1		39.8	40.1
COc1cc2c3c(c1OC)C1(C=CC(=O)C=C1)C[C@H]3N(C)CC2		> 100			> 100	> 100		> 100	> 100	> 100
CSc1sc2ccccc2[s+]1	> 100	> 100	> 100		> 100	> 100	> 100	> 100	> 100	> 100
O=C1c2cccnc2-c2nccc3c2c1nc1cc(Br)ccc13	0.591	0.373	0.465	1.12	0.263	0.288		0.0617	0.837	0.304
CC(=O)O[C@]12CCCCCC1C1(O)C(O)CCCC[C@H]12 (stereo not given in full)		> 100	> 100		> 100	> 100	> 100	> 100	> 100	> 100
On1c(-c2ccccc2)nc2ccccc2c1=S	> 100	> 100	> 100	74.2	> 100	> 100	> 100		> 100	61.8
CN(C)c1ccc(C2SCC(=O)N2c2ccc(Oc3ccc(Cl)cc3)c(Cl)c2)cc1 (stereo not given)	> 100	42.7	69.5	55.6	36.8	53.9		57.3	> 100	49.4
O=C1O[C@H](c2ccc3c(c2)OCO3)[C@H]2CO[C@@H](c3ccc4c(c3)OCO4)[C@@H]12	> 100	> 100		> 100	> 100	> 100	> 100	> 100	> 100	> 100
Cn1c2ccccc2c(=O)c2cccc(C(=O)NC(CCCN=C(N)N)C(=O)O)c21 (stereo not given)		> 100		> 100	> 100	> 100	> 100		> 100	> 100
CCC1(C)C=Cc2c(cc(O)c3c(=O)c4ccccc4n(C)c23)O1 (stereo not given)	> 10	> 10	> 10	> 10	> 10	> 10	> 10		> 10	> 10
CSc1ncnc2c1ncn2CCC#N	> 100		> 100	> 100	> 100		> 100	> 100	> 100	> 100
O=NN(CCCl)C(=O)NC1CCC(O)CC1 (stereo not given)	> 89.6	40.4	52.2		> 100	> 100	> 77.6		> 85.2	> 100
CC1=C(CO)C(=O)O[C@@H]([C@@H](CO)[C@H]2CCC3C4C[C@@H](O)[C@@]5(O)CC=CC(=O)[C@]5(C)C4CC[C@@]32C)C1 (stereo not given in full)	> 100	> 100	> 100		> 100		> 100	> 100	> 100	
Cc1ccc(S(=O)(=O)C(C#N)c2nc3ccccc3nc2-n2ccnc2)cc1 (stereo not given)			> 100		> 100	> 100	> 100		> 100	> 100
